Counter-ions that a name gives are not always drawn. Like-named read-outs stand apart in the source and are kept apart here.

As usually defined, the EC50 is the concentration that produces a half-maximal response. For orientation: Cmax means the maximum level reached in the sampled fluid or tissue.

A short description of data set [1]: in vitro. The following applies: human.
Data set [2] is described as follows: in vitro. The note with it: human. The source holds these as a separate data set.
Experimental: To assess cell viability, 2 μL of 50% Cell-Titer Glo (Promega No G7573) diluted in water was added to the cells and luminescence measured on an EnVision Plate Reader (Perkin Elmer).
Data analysis. […] Primary in vitro screen and the host cell cytotoxicity counter screen data were uploaded to Genedata Screener, Version 16.0.3-Standard. […] For the uninfected host cell cytotoxicity counter screens, 40 μM puromycin (Sigma) was used as the positive (inhibitory) control in HeLa-ACE2, HepG2 and HEK293T cells, and 30 μM puromycin (Sigma) was used as the positive (inhibitory) control for Calu-3 cells. For dose response experiments compounds were tested in technical triplicates on different assay plates and dose curves were fitted with the four parameter Hill Equation. Technical replicate data were analyzed using median condensing. Geometric means and geometric standard deviations are reported for compound activities (EC50s and CC50s) obtained in multiple independent biological experiments. […] Geometric means were calculated by computing the logarithm (base 10) of all values, calculating the mean of these logarithms, and taking the antilog of that mean. Geometric standard deviations were computed by taking the standard deviation of the log-transformed individual values and taking the antilog of that standard deviation. The geometric standard deviation is a unitless ratio and reported as ×÷ instead of +/−.
For data set [3], the system named is SARS-CoV-2. The data set can be described thus: microbe, parasite or virus in culture.
Data set [4] relates to SARS-CoV-2.
Data set [5] concerns SARS-CoV-2. The note with it: Table 4.
For data set [6], the system named is SARS-CoV-2. The data set can be described thus: microbe, parasite or virus in culture. The note with it: Severe acute respiratory syndrome coronavirus 2, Calu-3, 48 h, read-out: Calu-3 CoV-2 EC50 [μM].
Data set [7] has as its system HeLa-ACE2 cells. The data set can be described thus: cells. The class given is cell-based, human. The following applies: Homo sapiens, HeLa-ACE2, read-out: HeLa-ACE-2 EC50 [μM] (Geomeans, n ≥ 2).
Data set [8] deals with SARS-CoV-2. The data set can be described thus: Checkerboard synergy study with remdesivir (ZIP model, synergyfinder). In kind it is cell-based. The following applies: for Synergy score with remdesivir (δ): Table 3.
The conditions of data set [9]: human, oral; cited from earlier work.
Where [10] appears, read: CC50 [μM] (Geomeans, n ≥ 2 except where indicated: *n = 1).
[11] abbreviates: HeLa-ACE2 Uninfected Tox CC50 [μM].
Setting [12] is: Severe acute respiratory syndrome coronavirus 2, HeLa-ACE2, 24 h, read-out: CoV-2 EC50 [μM] (Geomeans, n ≥ 2).
Setting [13] is: Severe acute respiratory syndrome coronavirus 2, HeLa-ACE2, read-out: HeLa-ACE2 CoV-2 EC50 [μM].
Where [14] appears, read: Severe acute respiratory syndrome coronavirus 2, HeLa-ACE2, read-out: SARS CoV-2 EC50 (μM).

Consider `C[C@H]1O[C@@H](O[C@H]2[C@@H](O)C[C@@H](O[C@@H]3[C@@H](O)C[C@H](O[C@H]4CC[C@@]5(C)[C@H](CC[C@@H]6[C@@H]5C[C@@H](O)[C@]5(C)[C@@H](C7=CC(=O)OC7)CC[C@]65O)C4)O[C@@H]3C)O[C@@H]2C)C[C@H](O)[C@@H]1O` (stereo in doubt) [Digoxin], for which the CC50 was 0.12 µM in data set [1] (setting [10]), 0.12 µM in [1] (setting [11]) and more than 5040 nM in data set [2]. Moreover, the EC50 in data set [3] (setting [12]) is 0.166 µM; in [3] (setting [13]), 0.166 µM; in [6], 0.17 µM; in [7], 0.325 µM. Further, the “HeLa-ACE2 CC50/CoV-2 EC50” value in [4] was 0.72. In data set [4], the “HeLa-ACE2 SI CC50/CoV-2 EC50” value turned out to be 0.72. For the same compound, the “Calu3 SI CC50/CoV-2 EC50” value in data set [5] is more than 29.80.

On to `Nc1nc(N)c2nc(CCc3ccc(C(=O)N[C@@H](CCC(=O)O)C(=O)O)cc3)cnc2n1` [10-deazaaminopterin], for which the “interaction with remdesivir” value in data set [8] was “synergized”. Further, the maximal efficacy in [8] (compound alone, over the range of concentrations tested) is on record as 40%; in data set [8] (with addition of EC2 of remdesivir), approximately 65%; in data set [8] (with addition of EC24 of remdesivir), more than 80%.

Take `CCN(CC)CCCNc1ccnc2cc(Cl)ccc12` [AQ-13]: in data set [1] (setting [10]), the CC50 worked out at 25.9 µM. Moreover, in data set [8], the “Synergy score with remdesivir (δ)” value was −1.77. Besides, the EC50 in data set [3] (setting [12]) and in data set [3] (setting [14]) was 0.8 µM in each case. In data set [4], the “HeLa-ACE2 CC50/CoV-2 EC50” value is reported as 32.34.

Take `Nc1nc(Nc2ccc3c(c2)CC[C@@H](N2CCCC2)CC3)nn1-c1cc2c(nn1)-c1ccccc1CCC2` [BGB324/R-428]: the CC50 in data set [1] (setting [10]) is 15.7 µM. Further, in [8], the “Synergy score with remdesivir (δ)” value turned out to be 7.223. For the same compound, in data set [9], the Cmax was approximately 750 nM and the t1/2 was ~80 h (oral, humans)(30). Moreover, in [3] (setting [12]), the EC50 worked out at 1.2 µM. In addition, the EC50 in data set [3] (setting [14]) stood at 1.2 µM. Also, in data set [4], the “HeLa-ACE2 CC50/CoV-2 EC50” value stood at 13.05.

On to `COc1ccc2c(c1)[C@]1(CC1c1ccc3c(/C=C/c4ccc(CN5C[C@@H](C)O[C@@H](C)C5)cc4)n[nH]c3c1)C(=O)N2` (some centres unmarked) [CFI-400945], for which the results for the CC50 in [1] (setting [10]), in data set [1] (setting [11]) and in data set [2] were 7.18 µM, 7.18 µM and more than 19800 nM, respectively. The EC50 in data set [3] (setting [12]) is more than 7 µM; in [3] (setting [13]), more than 7 µM; in data set [6], 3.36 µM; in data set [7], more than 0.117 µM. Besides, the “HeLa-ACE2 CC50/CoV-2 EC50” value in data set [4] was less than 1.02. Besides, the “HeLa-ACE2 SI CC50/CoV-2 EC50” value in data set [4] was less than 1.02. In addition, the “Calu3 SI CC50/CoV-2 EC50” value in [5] is listed as more than 5.88.

As to `CN1CCN(c2ccc(C(=O)NCc3cnc(C#N)nc3NCC(C)(C)C)cc2)CC1` [Dutacatib], the CC50 in data set [1] (setting [10]) and in data set [1] (Uninfected HeLa-ACE2 CC50 (μM)) was more than 36.1 µM each time. Moreover, in data set [8], the “Synergy score with remdesivir (δ)” value stood at 2.955. Also, the EC50 in data set [3] (setting [12]) and in data set [3] (setting [14]) was 2.69 µM in each case. For the same compound, in data set [4], the “HeLa-ACE2 CC50/CoV-2 EC50” value is on record as more than 13.43.

With `CCCCN(CCCC)CCC(O)c1cc2c(Cl)cc(Cl)cc2c2cc(C(F)(F)F)ccc12` (centres unmarked) [Halofantrine HCl], the CC50 in [1] (setting [10]) and in data set [1] (Uninfected HeLa-ACE2 CC50 (μM)) was more than 23.9 µM in each case. In addition, the “Synergy score with remdesivir (δ)” value in data set [8] is reported as −3.509. Moreover, the Cmax in data set [9] was approximately 1000 nM. In addition, in data set [9], the t1/2 is recorded as ~72 h (human oral)(16, 17). For the same compound, the EC50 in data set [3] (setting [12]) and in [3] (setting [14]) was 1.16 µM in each case. The “HeLa-ACE2 CC50/CoV-2 EC50” value in data set [4] is on record as more than 20.66.

`CCCCC1CCc2cc(O)cc3c(CCN4CCN(c5cc(C)ccn5)CC4)c(C)n1c23` (centres unmarked) [KC 11404]: the CC50 in data set [1] (setting [10]) and in data set [1] (Uninfected HeLa-ACE2 CC50 (μM)) was more than 20.9 µM in each case. Moreover, the “Synergy score with remdesivir (δ)” value in data set [8] is −2.817. In addition, the EC50 in data set [3] (setting [12]) and in data set [3] (setting [14]) was 2.5 µM throughout. The “HeLa-ACE2 CC50/CoV-2 EC50” value in [4] was more than 8.39.

As for `CCOC(=O)[C@@H]1O[C@H]1C(=O)N[C@@H](CC(C)C)C(=O)N1CCN(Cc2ccc(OC)c(OC)c2OC)CC1` [NCO 700], the CC50 in data set [1] (setting [10]) and in data set [1] (Uninfected HeLa-ACE2 CC50 (μM)) was more than 39.8 µM each time. For the same compound, the “Synergy score with remdesivir (δ)” value in data set [8] is reported as 0.209. The EC50 in [3] (setting [12]) and in [3] (setting [14]) was 0.79 µM throughout. Further, the “HeLa-ACE2 CC50/CoV-2 EC50” value in data set [4] is recorded as more than 50.44.

These data come from patent US20230346820A1, “METHODS AND COMPOSITIONS FOR THE TREATMENT OF SARS-COV-2” (priority 2020, published 2023).
